Results: patent publication US20050215520A1, “Complex of organic medicines and beta-cyclodextrin derivatives and its preparing process” (priority 2002, published 2005)

Experiment: Critical mole ratio or critical mass ratio of medicines and beta-cyclodextrin derivative (Table 1, examples)
Type: physicochemical
Details: not given
Protocol: The critical mole ratio or critical mass ratio in the present invention refers to the mole ratio and mass ratio when complex of organic medicine and beta-cyclodextrin derivatives prepared with the method of this invention is dissolved exactly in water of specified amount to form stable aqueous solution.
The critical value of organic medicine and beta-cyclodextrin derivatives in the present invention, may be determined with the undermentioned unit test method.
All kinds of mole ratio and mass ratio of the medicine and beta-cyclodextrin derivative is made into complex with expanding loose body according to the method of the present invention, then the set water is added into the a variety of compounding ratio of complex, and by observing properties of the solution, the compounding ratio of exactly dissolving in water and with stable property, acts as the critical mole ratio or critical mass ratio of the present invention.
The critical mole ratio and critical mass ratio in the present invention may be determined with the undermentioned saturated solution method.
Weighing accurately medicine, and placing in the container, and gradually adding beta-cyclodextrin aqueous solution metered accurately with agitation, until the medicine is dissolved exactly and completely in this aqueous solution. Calculate both mass number here and convert it to mole number. Repeat the above-mentioned test, and get the mean mole number of repeated test, and calculate critical mole ratio with the undermentioned formula: Critical mole ratio of medicine=mean mole number of beta-cyclodextrin/mean mole number of medicine

Row | Molecule | Critical value mole ratio
1 | CN1C(=O)CN=C(c2ccccc2)c2cc(Cl)ccc21 [Diazepam] | 3

Same assay, conditions: beta-cyclodextrin derivative (hydroxide propyl beta-cyclodextrin in the examples) to medicine; complex dissolves exactly in water to stable solution

Row | Molecule | Critical value mole ratio | Critical value Mass ratio
2 | Cc1ccc(S(=O)(=O)NC(=O)NN2CC3CCCC3C2)cc1 (stereo not drawn) [gliclazide] | 2 | –
3 | CC1(C)C2CCC1(C)C(O)C2 (stereo not drawn) [borneol] | – | 6
4 | CC(=O)N1CCN(c2ccc(OCC3COC(Cn4ccnc4)(c4ccc(Cl)cc4Cl)O3)cc2)CC1 (stereo not drawn) [Ketoconazole] | 3 | –
5 | CC(=O)Nc1ccc(O)cc1 [paracetamol] | – | 3
6 | Oryzanol | – | 38
7 | CC(C)CC(N(C)C)C1(c2ccc(Cl)cc2)CCC1 (stereo not drawn) [Sibutramine] | – | 2
8 | COc1cc2c(cc1OC)[C@@H]1Cc3ccc(OC)c(OC)c3CN1CC2 [Rotundine] | 1 | –
9 | O=C(O)c1cn(C2CC2)c2cc(N3CCNCC3)c(F)cc2c1=O [Ciprofloxacin] | 5 | –
10 | CC(=O)S[C@@H]1CC2=CC(=O)CC[C@]2(C)[C@H]2CC[C@@]3(C)[C@@H](CC[C@@]34CCC(=O)O4)[C@H]12 [spironolactone] | 3 | –
11 | O=C(O)CCCC[C@@H]1CCSS1 [lipoic acid] | 1 | –
12 | CC[C@H](C)C(=O)O[C@H]1C[C@@H](C)C=C2C=C[C@H](C)[C@H](CC[C@@H]3C[C@@H](O)CC(=O)O3)[C@H]21 [Lovastatin] | 26 | –
13 | Cc1cc(NS(=O)(=O)c2ccc(N)cc2)no1 [sulfamethoxazole] | 2 | –
14 | CCS(=O)(=O)CCn1c([N+](=O)[O-])cnc1C [Tinidazole] | – | 6.5
15 | CCN1C[C@]2(OC(=O)c3ccccc3NC(C)=O)CC[C@H](OC)[C@@]34[C@@H]2C[C@@H]([C@@H]13)[C@@]1(O)C[C@H](OC)[C@H]2C[C@@H]4[C@]1(O)[C@H]2OC [Lappaconitine] | 2 | –
16 | COc1cc(C=O)ccc1O [vanillin] | – | 9
17 | CC(C)(O)C(Cl)(Cl)Cl [chlorbutanol] | – | 6
18 | Cc1nc(C)c(C)nc1C [ligustrazine] | – | 12
19 | CC/C(=C(\c1ccccc1)c1ccc(OCCN(C)C)cc1)c1ccccc1 [Tamoxifen] | 2 | –
20 | Artemoter | 8 | –
21 | Nc1ccc(S(=O)(=O)Nc2ncccn2)cc1 [sulfadiazine] | 3 | –
22 | O=C1Nc2ccc(Cl)cc2C(c2ccccc2Cl)=NC1O (stereo not drawn) [Lorazepam] | 3 | –
23 | NC(=O)CCCCC1CCSS1 (stereo not drawn) [thioctamide] | – | 7
24 | CC[C@H]1OC(=O)[C@H](C)[C@@H](O[C@H]2C[C@@](C)(OC)[C@@H](O)[C@H](C)O2)[C@H](C)[C@@H](O[C@@H]2O[C@H](C)C[C@H](N(C)C)[C@H]2O)[C@](C)(O)C[C@@H](C)C(=O)[C@H](C)[C@@H](O)[C@]1(C)O [Erythromycin] | 6 | –
25 | CC12CCC(CC1=O)C2(C)C (stereo not drawn) [camphor] | – | 8
26 | CC(=O)O[C@H]1C(=O)[C@@]2(C)[C@H]([C@H](OC(=O)c3ccccc3)[C@]3(O)C[C@H](OC(=O)[C@H](O)[C@@H](NC(=O)c4ccccc4)c4ccccc4)C(C)=C1C3(C)C)[C@]1(OC(C)=O)CO[C@@H]1C[C@@H]2O [Taxol] | 100 | –

Row | Molecule | Critical value mole ratio | Critical value Mass ratio
27 | CN1C(C(=O)Nc2ccccn2)=C(O)c2ccccc2S1(=O)=O [Piroxicam] | – | 15
28 | CC(C)Cc1ccc(C(C)C(=O)O)cc1 (stereo not drawn) [Ibuprofen] | – | 8
29 | OC(CCCN1CCCCC1)(c1ccccc1)c1ccccc1 [difenidol] | 1 | –
30 | C[C@]12C=CC(=O)C=C1CC[C@@H]1[C@@H]2C(=O)C[C@@]2(C)[C@H]1CC[C@]2(O)C(=O)CO [prednisone] | 4 | –
31 | Cc1ccc(-c2nc3ccc(C)cn3c2CC(=O)N(C)C)cc1 [Zolpidem] | 2 | –
32 | CC(CN1c2ccccc2S(=O)(=O)c2ccccc21)N(C)C (stereo not drawn) [Dioxopromethazine] | – | 2
33 | Clc1ccc(COC(Cn2ccnc2)c2ccc(Cl)cc2Cl)c(Cl)c1 (stereo not drawn) [Miconazole] | 6 | –
34 | CN(Cc1cc(Br)cc(Br)c1N)C1CCCCC1 [Bromhexine] | 3 | –
35 | CCCc1nn(C)c2c(=O)[nH]c(-c3cc(S(=O)(=O)N4CCN(C)CC4)ccc3OCC)nc12 [Sildenafil] | 2 | –
36 | CC[C@H]1OC(=O)[C@H](C)[C@@H](O[C@H]2C[C@@](C)(OC)[C@@H](O)[C@H](C)O2)[C@H](C)[C@@H](O[C@@H]2O[C@H](C)C[C@H](N(C)C)[C@H]2O)[C@](C)(OC)C[C@@H](C)C(=O)[C@H](C)[C@@H](O)[C@]1(C)O [Clarithromycin] | 18 | –
37 | Clc1ccc2c(c1)C(c1ccccc1)=NCc1nncn1-2 [Estazolam] | – | 20
38 | CCn1cc(C(=O)O)c(=O)c2cc(F)c(N3CCNCC3)cc21 [norfloxacin] | – | 30
39 | NC(N)=Nc1nc(CSCCC(N)=NS(N)(=O)=O)cs1 [famotidine] | – | 9
40 | Cn1c(=O)c2c(ncn2C)n(C)c1=O [caffein] | – | 4
41 | COc1cc([C@@H]2c3cc4c(cc3[C@@H](O[C@@H]3O[C@@H]5CO[C@@H](C)O[C@H]5[C@H](O)[C@H]3O)[C@H]3COC(=O)[C@H]23)OCO4)cc(OC)c1O [Etoposide] | 10 | –
42 | COc1cc(Cc2cnc(N)nc2N)cc(OC)c1OC [TMP] | 3 | –
43 | CC1(C)S[C@@H]2[C@H](NC(=O)[C@H](N)c3ccccc3)C(=O)N2[C@H]1C(=O)O [Ampicilline] | 3 | –
44 | CC[C@H]1OC(=O)[C@H](C)[C@@H](O[C@H]2C[C@@](C)(OC)[C@@H](O)[C@H](C)O2)[C@H](C)[C@@H](O[C@@H]2O[C@H](C)C[C@H](N(C)C)[C@H]2O)[C@](C)(O)C[C@@H](C)/C(=N\OCOCCOC)[C@H](C)[C@@H](O)[C@]1(C)O [Roxithromycin] | 18 | –
45 | Medicamycin | 8 | –
46 | C[C@]12CC[C@H](O)CC1=CC[C@@H]1[C@@H]2CC[C@]2(C)C(=O)CC[C@@H]12 [Prasterone] | 3 | –
47 | CC[C@H]1OC(=O)[C@H](C)[C@@H](O[C@H]2C[C@@](C)(OC)[C@@H](O)[C@H](C)O2)[C@H](C)[C@@H](O[C@@H]2O[C@H](C)C[C@H](N(C)C)[C@H]2O)[C@](C)(O)C[C@@H](C)CN(C)[C@H](C)[C@@H](O)[C@]1(C)O [Azithromycin] | 16 | –
48 | CS(=O)(=O)OCCCCOS(C)(=O)=O [Busulfan] | 5 | –
49 | CC1CCC(C(C)C)C(O)C1 (stereo not drawn) [menthol] | 2 | –
50 | Clc1ccccc1C(c1ccccc1)(c1ccccc1)n1ccnc1 [Clotrimazole] | 4 | –
51 | Cc1noc(NS(=O)(=O)c2ccc(N)cc2)c1C [sulfafurazole] | 2 | –
